Results reported in the NIST ThermoML archive (doi:10.1021/je900050z).
“And” between values parts separate entries of the source, which are not always exact repeats. Equal entries are not always repeated.

Details: Liquid

CCC(C)(C)O [2-methylbutan-2-ol]
Details | vapor or sublimation pressure [kPa]
303.29 K | 2.81
303.47 K | 2.85
304.67 K | 3.16
305.75 K | 3.4
305.9 K | 3.43
308.35 K | 4.08
309.12 K | 4.31
309.86 K | 4.55
310.61 K | 4.8
311.64 K | 5.15
312.47 K | 5.43
313.38 K | 5.77
314.17 K | 6.08
315.44 K | 6.59
317.09 K | 7.31
318.64 K | 7.99
319.37 K | 8.36
319.86 K | 8.61
320.32 K | 8.84
321.32 K | 9.36
322.44 K | 9.99
323.15 K | 10.41
323.27 K | 10.49
324.11 K | 11.03
324.91 K | 11.51
325.71 K | 12.03
326.45 K | 12.55
327.18 K | 13.05
327.62 K | 13.36
328.41 K | 13.97
329.33 K | 14.65
330.15 K | 15.31
330.98 K | 15.97
331.8 K | 16.67
332.46 K | 17.29
333.15 K | 17.87
333.26 K | 17.99
333.99 K | 18.65
334.69 K | 19.32
335.45 K | 20.03
336.05 K | 20.67
336.68 K | 21.31
337.31 K | 21.96
337.97 K | 22.63
338.69 K | 23.47
339.15 K | 23.97
339.68 K | 24.67
340.31 K | 25.35
340.83 K | 26
341.39 K | 26.67
341.9 K | 27.33
342.4 K | 27.97
342.92 K | 28.67
343.15 K | 28.95
343.42 K | 29.31
343.94 K | 30.01
344.47 K | 30.67
344.91 K | 31.35
345.39 K | 32.07
345.78 K | 32.67
346.35 K | 33.48
347.18 K | 34.67
347.57 K | 35.32
348.07 K | 36.07
348.49 K | 36.71
348.88 K | 37.36
349.27 K | 38.01
349.64 K | 38.64
350.08 K | 39.32
350.49 K | 39.96
350.83 K | 40.64
351.2 K | 41.31
351.67 K | 42.08
351.95 K | 42.65
352.3 K | 43.35
352.73 K | 44
353.02 K | 44.65
353.15 K | 44.87
353.44 K | 45.35
353.73 K | 45.97
354.1 K | 46.63
354.41 K | 47.28
354.72 K | 47.95
355.11 K | 48.65
355.43 K | 49.31
355.74 K | 49.95
356.09 K | 50.75
356.45 K | 51.36
356.69 K | 52
356.99 K | 52.61
357.35 K | 53.32
357.67 K | 54.03
357.96 K | 54.67
358.25 K | 55.35
358.47 K | 55.95
358.85 K | 56.63
359.15 K | 57.33
359.48 K | 58
359.68 K | 58.59
360.01 K | 59.27
360.21 K | 59.95
360.53 K | 60.59
360.83 K | 61.27
361.11 K | 61.99
361.4 K | 62.61
361.72 K | 63.35
362.01 K | 64.04
362.24 K | 64.67
362.54 K | 65.35
362.84 K | 66
363.07 K | 66.71
363.56 K | 67.92
364.15 K | 69.21
364.62 K | 70.64
365.21 K | 71.99
365.73 K | 73.37
366.16 K | 74.75
366.67 K | 76.05
367.11 K | 77.28
367.53 K | 78.63
368.02 K | 79.97
368.44 K | 81.28
368.83 K | 82.53
369.31 K | 83.93
369.73 K | 85.28
370.15 K | 86.63
370.56 K | 87.97
370.99 K | 89.39
371.39 K | 90.76
371.77 K | 91.99
372.16 K | 93.31
372.56 K | 94.67
372.95 K | 95.99
373.34 K | 97.39
373.73 K | 98.71

CCC(C)O (centres undefined) [butan-2-ol]
Details | vapor or sublimation pressure [kPa]
314.47 K | 6.08
315.36 K | 6.43
316.21 K | 6.81
317.61 K | 7.45
318.57 K | 7.92
319.37 K | 8.35
319.58 K | 8.45
320.18 K | 8.77
321.05 K | 9.23
322.03 K | 9.8
322.68 K | 10.19
323.15 K | 10.48
323.41 K | 10.64
324.05 K | 11.04
324.72 K | 11.47
325.27 K | 11.84
325.92 K | 12.31
326.66 K | 12.81
327.32 K | 13.16
328.28 K | 14.03
329.05 K | 14.61
329.91 K | 15.31
330.49 K | 15.79
331.11 K | 16.31
331.58 K | 16.71
332.17 K | 17.25
332.81 K | 17.87
333.15 K | 18.2
333.28 K | 18.33
333.65 K | 18.68
334.23 K | 19.24
334.69 K | 19.71
335.19 K | 20.2
335.69 K | 20.71
336.28 K | 21.33
336.77 K | 21.85
337.23 K | 22.35
337.72 K | 22.87
338.08 K | 23.28
338.6 K | 23.87
339.07 K | 24.43
339.5 K | 24.95
339.9 K | 25.43
340.34 K | 25.97
340.95 K | 26.79
341.4 K | 27.36
341.87 K | 27.99
342.34 K | 28.63
342.89 K | 29.37
343.15 K | 29.76
343.32 K | 29.97
343.81 K | 30.67
344.25 K | 31.31
344.71 K | 31.99
345.14 K | 32.63
345.6 K | 33.33
346.02 K | 33.99
346.45 K | 34.67
346.86 K | 35.32
347.28 K | 36.01
347.65 K | 36.63
348.06 K | 37.31
348.45 K | 37.99
348.85 K | 38.64
349.21 K | 39.29
349.58 K | 39.95
350.15 K | 40.97
350.75 K | 42.05
351.25 K | 43.03
351.74 K | 43.96
352.26 K | 44.97
353.08 K | 46.6
353.15 K | 46.75
353.6 K | 47.65
354.06 K | 48.61
354.53 K | 49.61
355 K | 50.63
355.45 K | 51.63
355.81 K | 52.39
356.23 K | 53.33
356.8 K | 54.63
357.37 K | 55.96
357.99 K | 57.41
358.5 K | 58.67
359.06 K | 60.03
359.62 K | 61.41
360.13 K | 62.73
360.61 K | 63.97
361.1 K | 65.29
361.64 K | 66.71
362.1 K | 67.99
362.63 K | 69.43
363.07 K | 70.69
363.57 K | 72.12
364 K | 73.36
364.48 K | 74.72
364.9 K | 76
365.33 K | 77.31
365.76 K | 78.65
366.18 K | 79.95
366.63 K | 81.35
367.04 K | 82.63
367.47 K | 84.03
367.88 K | 85.39
368.27 K | 86.71
368.68 K | 88.05
369.08 K | 89.41
369.43 K | 90.67
369.79 K | 91.91
370.19 K | 93.33
370.56 K | 94.44
370.94 K | 96
371.32 K | 97.35
371.65 K | 98.59

C1CCCCC1 [cyclohexane]
Details | vapor or sublimation pressure
295.42 K | 11.15 kPa
295.45 K | 11.16 kPa
295.46 K | 11.17 kPa
295.72 K | 11.33 kPa
295.75 K | 11.35 kPa
296.22 K | 11.63 kPa
297.08 K | 12.15 kPa
297.13 K | 12.16 kPa and 12.17 kPa
297.86 K | 12.61 kPa
297.99 K | 12.71 kPa
298.83 K | 13.23 kPa
299.75 K | 13.8 kPa
299.77 K | 13.81 kPa
300.85 K | 14.52 kPa
302.63 K | 15.71 kPa
303.02 K | 16.03 kPa
303.15 K | 16.11 kPa
304.38 K | 17.04 kPa
304.4 K | 17.05 kPa
304.42 K | 17.07 kPa
306.05 K | 18.33 kPa
306.4 K | 18.6 kPa
307.45 K | 19.4 kPa
308.06 K | 19.91 kPa
309.5 K | 21.12 kPa
310.98 K | 22.47 kPa
312.48 K | 23.89 kPa
313.15 K | 24.56 kPa
313.84 K | 25.25 kPa
315.01 K | 26.47 kPa
315.26 K | 26.67 kPa
316.32 K | 27.88 kPa
317.51 K | 29.23 kPa
318.31 K | 30.09 kPa
318.67 K | 30.56 kPa
319.81 K | 31.93 kPa
320.87 K | 33.27 kPa
321.91 K | 34.59 kPa
321.99 K | 34.69 kPa
322.94 K | 35.95 kPa
323.15 K | 36.27 kPa
323.44 K | 36.59 kPa
323.88 K | 37.23 kPa
323.95 K | 37.33 kPa
324.83 K | 38.56 kPa
326.12 K | 40.45 kPa
326.68 K | 41.25 kPa
327.61 K | 42.68 kPa
328.43 K | 43.97 kPa
329.32 K | 45.4 kPa
329.35 K | 45.43 kPa
330.05 K | 46.59 kPa
330.94 K | 48.07 kPa
331.68 K | 49.32 kPa
332.02 K | 49.89 kPa
332.41 K | 50.6 kPa
333.11 K | 51.87 kPa
333.15 K | 51.92 kPa
333.83 K | 53.15 kPa
333.86 K | 53.19 kPa
334.53 K | 54.47 kPa
335.26 K | 55.85 kPa
335.64 K | 56.56 kPa
335.95 K | 57.19 kPa
336.7 K | 58.63 kPa
337.36 K | 59.96 kPa
338.06 K | 61.39 kPa and 61.4 kPa
338.65 K | 62.63 kPa
338.67 K | 62.64 kPa
339.29 K | 63.95 kPa
339.92 K | 65.29 kPa
340.54 K | 66.63 kPa
341.12 K | 67.95 kPa
341.72 K | 69.29 kPa
342.32 K | 70.65 kPa
342.88 K | 71.93 kPa
343.15 K | 72.6 kPa
343.43 K | 73.25 kPa
344.05 K | 74.73 kPa
344.55 K | 75.96 kPa
345.08 K | 77.27 kPa
345.69 K | 78.76 kPa
346.18 K | 80 kPa
346.67 K | 81.25 kPa
347.18 K | 82.56 kPa and 82.57 kPa
347.69 K | 83.89 kPa
348.19 K | 85.23 kPa
348.65 K | 86.49 kPa
349.19 K | 87.93 kPa
349.72 K | 89.43 kPa
350.18 K | 90.64 kPa
350.25 K | 90.87 kPa
350.67 K | 92.07 kPa
351.1 K | 93.27 kPa
351.57 K | 94.63 kPa
352.01 K | 95.92 kPa
352.45 K | 97.23 kPa
352.9 K | 98.57 kPa
353.15 K | 99.31 kPa
353.36 K | 99.95 kPa
